Earlier results, collected in patent publication US6743947B1, “Electrochemically stable onium salts and electrolytes containing such for electrochemical capacitors” (The United States of America as represented by the …, priority 1999, dated 2004).
Where two headings read alike, the source gives them in different places.

How the values were obtained:
[1] = room temperature

CC[N+](CC)(CC)CC.F[B-](F)(F)F [Et4NBF4, tetraethylammonium tetrafluoroborate]
saturated salt concentration (in acetonitrile (AN), room temperatures): about 1.68 M | saturated concentration (in propylene carbonate (PC), room temperature): 0.86 M | conductivity ([1]; in AN, 1.4 M): about 50 mS/cm | conductivity ([1]; in PC, 0.65 M): 8.8 mS/cm
